Measurements taken from patent US10253075B2, “WT1 antigenic polypeptide, and anti-tumor agent containing said polypeptide” (Tella, Inc., priority 2014, dated 2019).

Assays:
Assay type in all cases: cell-based, human
[1] = system: CD8-positive T cells (CTL); assay: Induction of antigen-specific CTL from PBMC; IFN-γ intracellular staining (ICS); set-up: key to induction of antigen-specific T cells: The symbol “+” in Table 7 indicates that the induction of antigen-specific T cells was observed; the symbol “−” indicates that the induction of antigen-specific T cells was not observed; conditions: for best peptide (%) / induction efficiency (%): CD8; for best peptide (%): percentage of the 6 kinds of PBMCs in which the peptide was evaluated as best peptide; for induction efficiency (%): proportion of the 6 kinds of donor PBMCs induced to antigen-specific T cells; for best peptide: highest ratio of antigen-specific IFN-γ-producing cells; for induction of antigen-specific T cells: induced T cell CD8, polypeptide 5 μM, IFN-γ-producing cells, day 21
Description: (§1) From the blood that was donated from 6 healthy human volunteers, human peripheral blood mononuclear cells (PBMC) were separated using a Ficoll-Paque (manufactured by Amersham Bioscience Inc.). The separated PBMC was cultured at 37° C. for 1 hour in a cell culture flask (manufactured by ED Biosciences) in a CO2 incubator using a serum-free AIM-V medium, thereby to remove non-adherent cells. Then, adherent cells remaining on the flask were started to culture in the AIM-V medium in the presence of a recombinant GM-CSF (10 ng/ml, manufactured by Wako Company) and a recombinant IL-4 (10 ng/ml, manufactured by Wako Company). After 3 days from the start of culture, the medium was replaced by an AIM-V medium supplemented with GM-CSF and IL-4, and dendritic cells (DC) were recovered using trypsin after 7 days from the start of culture. These DCs were used as antigen-presenting cells (APC) in the induction of antigen-specific T cells or in the analysis of antigen-specific cytokine (IFN-γ) production from T cells.
(§2) The foregoing PBMCs separated from healthy human volunteers were seeded to a density of 2×10^6 cells/well in a 24-well plate (manufactured by BD Biosciences). Then, culturing the cells were started in an AIM-V medium (1 ml/well) supplemented with each polypeptide (5 μM) derived from the WT1 protein described above inducing antigen-specific T cells, and serum at 37° C. in a CO2 incubator.
(§3) After 7 days from the start of culture, the above DC (autologous DC) was added to PBMC having the same derivation. Further, the medium was replaced with a serum-free AIM-V medium (manufactured by Life Technologies Inc.) supplemented with OK-432 (0.1 KE/ml, trade name: picibanil, manufactured by Chugai Pharmaceutical Co., Ltd.), and culture was performed for 2 hours. It should be noted that picibanil (OK-432) is a formulation obtained by treating an attenuated natural mutant strain (Su strain) of Group A Streptococcus with penicillin, and it is known that various cytokines (immune factor) are produced with use of picibanil to elicit an immune enhancing effect.
(§4) Then, after 2 hours of culture, the cells were treated for 50 minutes with addition of mitomycin C (MMC, manufactured by Kyowa Hakko Kirin Co., Ltd.). Furthermore, co-culture was performed in an AIM-V medium containing autologous DC and 5% human AB serum in which T cells are inactivated (Hokkaido Red Cross Center) in the presence of each polypeptide (5 μM) for inducing the antigen-specific T cells, thereby to re-stimulate the T cells. Two days later, a recombinant IL-2 (manufactured by Shionogi Pharmaceutical Institute Co., Ltd.) was added thereto to a final concentration of 10 U/ml. After 14 days from the start of co-culture, the autologous DC was pulsed with each polypeptide (5 μM) for inducing the antigen-specific T cells for 2 hours, and then treated with MMC. Such MMC treated cells as APC were used for re-stimulating T cells. In addition, on or after 14 days from the start of co-culture, culture was performed at the concentration of 20 U/ml of recombinant IL-2. After that, T cells on day 21 of the co-culture were collected by centrifugation or the like and subjected to an analysis of antigen-specific reactivity shown below.
(§5) T cells that were induced as described above (T cells on day 21 of the co-culture) and autologous DCs were seeded in the same well of a 96-well plate (manufactured by BD Biosciences) to a density of 5×10^4 cells/well and 5×10^3 cells/well, respectively. Then, the cells were cultured in the presence of each polypeptide (HE 4, KE 1, KE 5, H/K-HELP 1, H/K-HELP 2 or H/K-HELP 3) (5 μM) for the analysis of antigen-specific reactivity. In addition, a group without addition of such polypeptide was prepared as a control group. […]

[2] = system: CD4-positive T cells (Th cells); assay: Induction of antigen-specific Th cells from PBMC; IFN-γ intracellular staining (ICS); set-up: key to induction of antigen-specific T cells: The symbol “+” in Table 7 indicates that the induction of antigen-specific T cells was observed; the symbol “−” indicates that the induction of antigen-specific T cells was not observed; conditions: for best peptide (%) / induction efficiency (%): CD4; for best peptide (%): percentage of the 6 kinds of PBMCs in which the peptide was evaluated as best peptide; for induction efficiency (%): proportion of the 6 kinds of donor PBMCs induced to antigen-specific T cells; for induction of antigen-specific T cells: induced T cell CD4, polypeptide 5 μM, IFN-γ-producing cells, day 21; for best peptide: highest ratio of antigen-specific IFN-γ-producing cells
Description: as §1, §2, §3, §4, §5

[3] = system: CD4-positive T cells and CD8-positive T cells; assay: Induction of antigen-specific T cells from PBMC, CD4 and CD8 taken together; conditions: for best peptide (%): CD4 + CD8, percentage of PBMCs in which the peptide was evaluated as best peptide
Description: as §1, §2, §3
Then, after 2 hours of culture, the cells were treated for 50 minutes with addition of mitomycin C (MMC, manufactured by Kyowa Hakko Kirin Co., Ltd.). Furthermore, co-culture was performed in an AIM-V medium containing autologous DC and 5% human AB serum in which T cells are inactivated (Hokkaido Red Cross Center) in the presence of each polypeptide (5 μM) for inducing the antigen-specific T cells, thereby to re-stimulate the T cells. Two days later, a recombinant IL-2 (manufactured by Shionogi Pharmaceutical Institute Co., Ltd.) was added thereto to a final concentration of 10 U/ml. […]

| Sequence | best peptide (%) [1] [%] | induction efficiency (%) [1] [%] | induction of antigen-specific T cells ([1]; donor 1 PBMC) | induction of antigen-specific T cells ([1]; donor 2 PBMC) | induction of antigen-specific T cells ([1]; donor 3 PBMC) | induction of antigen-specific T cells ([1]; donor 4 PBMC) | induction of antigen-specific T cells ([1]; donor 5 PBMC) | induction of antigen-specific T cells ([1]; donor 6 PBMC) | best peptide (%) [2] [%] | induction efficiency (%) [2] [%] | induction of antigen-specific T cells ([2]; donor 1 PBMC) | induction of antigen-specific T cells ([2]; donor 2 PBMC) | induction of antigen-specific T cells ([2]; donor 3 PBMC) | induction of antigen-specific T cells ([2]; donor 4 PBMC) | induction of antigen-specific T cells ([2]; donor 5 PBMC) | induction of antigen-specific T cells ([2]; donor 6 PBMC) | best peptide (%) [3] [%] | further results |
| --- | --- | --- | --- | --- | --- | --- | --- | --- | --- | --- | --- | --- | --- | --- | --- | --- | --- | --- |
| KRYFKLSHLQMHSRKHGGGGGRMFPNAPYLGGGGGCYTWNQMNL (Fusion polypeptide in which HE4, 5-Glycine linker, KE1, 5-Glycine linker and KE5 are fused in this order from the N-terminal) [H/K-HELP2, fused polypeptide: HE 4, KE 1 and KE 5 from the N-terminus with five-glycine linkers] | 33.33 | 50.00 | + | − | + | − | − | + | 33.33 | 50.00 | − | + | + | − | + | − | 33.33 | best peptide ([1]; donor 1, CD8): H/K-HELP2; best peptide ([1]; donor 6, CD8): H/K-HELP2; best peptide ([2]; donor 2, CD4): H/K-HELP2; best peptide ([2]; donor 3, CD4): H/K-HELP2 |
| KRYFKLSHLQMHSRKHGGGGGRMFPNAPYL (Fusion polypeptide in which HE4, 5-Glycine linker and KE1 are fused in this order from the N-terminal) [H/K-HELP1, fused polypeptide: HE4, five-glycine linker, KE1 from the N-terminus] | 0.00 | 16.67 | − | − | − | − | + | − | 0.00 | 33.33 | + | − | − | − | + | − | 0.00 | activity of inducing antigen-specific T cells in CD4-positive and CD8-positive T cells, comparison in words ([3]; compared with Comparative Example 1 (mix of the epitopes), 6 donors): not different from those of Comparative Example 1 |
| RMFPNAPYLGGGGGKRYFKLSHLQMHSRKHGGGGGCYTWNQMNL (Fusion polypeptide in which KE1, 5-Glycine linker, HE4, 5-Glycine linker and KE5 are fused in this order from the N-terminal) [H/K-HELP3, fused polypeptide: KE 1, HE 4 and KE 5 from the N-terminus with five-glycine linkers] | 50.00 | 50.00 | − | − | + | + | + | − | 50.00 | 66.67 | + | − | + | + | + | − | 50.00 | best peptide ([1]; donor 3, CD8): H/K-HELP3; best peptide ([1]; donor 4, CD8): H/K-HELP3; best peptide ([1]; donor 5, CD8): H/K-HELP3; stimulation of CD4-positive T cells of different derivation to induce IFN-γ-producing Th1 cells, comparison in words ([2]; compared with Example 1, 6 donors): more numerous CD4-positive T cells of different derivation are stimulated, as compared to Example 1; best peptide ([2]; donor 1, CD4): H/K-HELP3; best peptide ([2]; donor 4, CD4): H/K-HELP3; best peptide ([2]; donor 5, CD4): H/K-HELP3 |
